The results in this text go back to ChEMBL document CHEMBL1133273, “Synthesis and evaluation of quinoline carboxyguanidines as antidiabetic agents” (2000).

Type in all cases: functional
Experiment [1] concerns Rattus norvegicus. Kind of experiment: Percent glycaemia evolution at 20 mg/kg at 2 hr after the last administration for 4 days chronic treatment (J4) in Wistar rats.
The test system of experiment [2] is Rattus norvegicus. The experiment can be described thus: Percent glycaemia evolution at 200 mg/kg at 2 hr after the last administration for 4 days chronic treatment (J4) in Wistar rats.
Experiment [3] relates to Rattus norvegicus. Kind of experiment: Percent glycaemia evolution at 20 mg/kg at 2 hr after a sharp administration (J1) in Wistar rats.
For experiment [4], the system named is Rattus norvegicus. Kind of experiment: Percent glycaemia evolution at 200 mg/kg at 2 hr after a sharp administration (J1) in Wistar rats.
The subject of experiment [5] is Rattus norvegicus. Kind of experiment: Number of deaths at 20 mg/kg at 2 hr after the last administration for 4 days chronic treatment (J4) in Wistar rats; 1 death/5.
In experiment [6] the test system is Rattus norvegicus. The experiment can be described thus: Number of deaths at 200 mg/kg at 2 hr after the last administration for 4 days chronic treatment (J4) in Wistar rats; 4 death/5.

As to `CCOc1cc(C(=O)Nc2nn[nH]n2)nc2ccc(F)cc12`, the Glycaemia evolution with Rattus norvegicus [1] is 4%; in the experiment on Rattus norvegicus [2] it was -6%; in the experiment on Rattus norvegicus [3] it was 8%; in the experiment on Rattus norvegicus [4], 9%.
The matching figures for `NC(=O)NNC(=O)c1cc(O)c2cc(F)ccc2n1`: -16%, -14%, -6% and -7%.
For `CCOc1cc(C(=O)N=C(N)N)nc2cc(OC)ccc12` the same measures were -2%, 2%, 2% and 6%.
The matching figures for `CCOc1cc(C(=O)N=C(N)N)nc2ccc(F)cc12.Cl`: -10%, -30%, -8% and -5%.
Regarding `Cl.N=C(N)NC(=O)c1cc(O)c2cc(F)ccc2n1`, the Glycaemia evolution in the experiment with Rattus norvegicus [1] is on record as -15%; in the experiment on Rattus norvegicus [2] it was -14%; with Rattus norvegicus [3], -5%; in the experiment with Rattus norvegicus [4], -7%.
For `CCn1cc(C(=O)N=C(N)N)c(=O)c2cc(OC)ccc21.Cl` the same measures were 0%, -9%, 0% and 0%.
As to `COc1ccc2ncc(C(=O)N=C(N)N)c(O)c2c1.Cl`, the Glycaemia evolution with Rattus norvegicus [1] was 3%; in the experiment on Rattus norvegicus [2], 3%; with Rattus norvegicus [3] it was 5%; in the experiment with Rattus norvegicus [4], -8%.
In the case of `CCOc1cc(C(=O)NN=C(N)N)nc2ccc(F)cc12.Cl`, the Glycaemia evolution is given as -3% in the experiment with Rattus norvegicus [1], -14% in the experiment on Rattus norvegicus [2], 6% in the experiment on Rattus norvegicus [3] and -4% in the experiment on Rattus norvegicus [4].
Consider `Cl.N=C(N)NC(=O)c1cc(Cl)c2cc(F)ccc2n1`, for which the No. of deaths in the experiment on Rattus norvegicus [5] is listed as 1; with Rattus norvegicus [6], 4. Also, the Glycaemia evolution worked out at 19% in the experiment on Rattus norvegicus [3] and 58% in the experiment on Rattus norvegicus [4].
On to `CCn1cc(C(=O)N=C(N)N)c(=O)c2ccc(C)nc21.Cl`, for which the Glycaemia evolution with Rattus norvegicus [1] is -11%; in the experiment on Rattus norvegicus [2], -21%; in the experiment on Rattus norvegicus [3], 1%; in the experiment on Rattus norvegicus [4] it was -4%.
Consider `CCN1CC(C(=O)N/N=C(\N)N=C(N)N)C(=O)c2cc(OC)ccc21.Cl` (stereo not given), for which the Glycaemia evolution in the experiment on Rattus norvegicus [1] was -2%; in the experiment with Rattus norvegicus [2] it was -5%; in the experiment with Rattus norvegicus [3], -3%; with Rattus norvegicus [4] it was 2%.
For `CCOc1cc(C(=O)NNC(N)=O)nc2ccc(F)cc12` the same measures were -8%, -3%, 3% and 8%.
In the case of `Cl.N=C(N)NNC(=O)c1cc(O)c2cc(F)ccc2n1`, the Glycaemia evolution was 4% in the experiment on Rattus norvegicus [1], -2% with Rattus norvegicus [2], 8% in the experiment on Rattus norvegicus [3] and 8% with Rattus norvegicus [4].
`CCOc1cc(C(=O)N=C(N)N)nc2cc3c(cc12)OCO3.Cl`: the Glycaemia evolution with Rattus norvegicus [1] was -6%; with Rattus norvegicus [2], -7%; in the experiment on Rattus norvegicus [3] it was 1%; in the experiment on Rattus norvegicus [4], -4%.
`CCn1cc(C(=O)NN=C(N)N)c(=O)c2cc(OC)ccc21.Cl`: the Glycaemia evolution in the experiment on Rattus norvegicus [1] was -12%; in the experiment with Rattus norvegicus [2] it was -6%; in the experiment on Rattus norvegicus [3], -10%; in the experiment on Rattus norvegicus [4], 6%.
